According to patent publication US10463644B2, “Uses of sesquiterpene lactone compounds and their derivatives in drugs preparation” (ACCENDATECH, priority 2013, dated 2019):
Read-outs that look alike come from different tables or passages of the source.

Legend:
cancer cells = test: Survival rate of cancer cells after test compound is added (flow cytometry, Annexin V-FITC/PI, clinical specimen); format: cell-based, patient; conditions: Homo sapiens, 18 h, read-out: Survival rate (%) All cells (Stem cells and ordinary cells)
Outline: (§1)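 Ficoll-isolated mononuclear cells from patient specimens (e.g. AML) in serum-free IMDM at 1×10^6/mL were exposed to compound for 18 hours. Cells were stained for stem-cell markers (CD34+CD38+ for AML) plus Annexin V-FITC/PI, and apoptosis was read by flow cytometry within one hour.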

[1] = test system: IL-1β secreted by synoviocyte; test: Content of IL-1β in culture supernatant of synoviocyte of RA model rats given test compound; format: in vivo; conditions: rat RA model, dose 30 mg/kg.2d; normal control 0.16 ± 0.034, NaCl 0.49 ± 0.136
Outline: (§2)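 Rat RA model: compounds given at 30 mg/kg.2d, with normal control and NaCl groups. Synoviocyte culture supernatants assayed for secreted TNF-α and PGE2 by one referenced method, IL-1β by another.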

normal cells = test: Survival rate of normal cells after test compound is added (flow cytometry, Annexin V-FITC/PI); format: cell-based; conditions: 18 h
Outline: as §1

cancer stem cells = test: Survival rate of cancer stem cells after test compound is added (flow cytometry, Annexin V-FITC/PI, clinical specimen); format: cell-based, patient; conditions: Homo sapiens, 18 h
Outline: as §1

[2] = test system: PGE2 secreted by synoviocyte; test: Content of PGE2 in culture supernatant of synoviocyte of RA model rats given test compound; format: in vivo; conditions: rat RA model, dose 30 mg/kg.2d; normal control 8.34 ± 1.29, NaCl 32.44 ± 10.32
Outline: as §2

[3] = Head and neck squamous cell carcinomas
[4] = read-out: Survival rate (%) All cells (Stem cells and ordinary cells)
[5] = read-out: Survival rate (%) Stem cells

C=C1CC[C@H]2C(=C)CC[C@H]3C(=C)C(=O)O[C@@H]3[C@@H]12 [Compound 25]
viability at 10 µM (cancer cells; AML): 47% | viability at 20 µM (cancer cells; AML): 44% | viability at 10 µM (cancer cells; Brain glioma): 74% | viability at 20 µM (cancer cells; Brain glioma): 58% | viability at 10 µM (cancer cells; Brain tumor): 83% | viability at 20 µM (cancer cells; Brain tumor): 73% | viability at 10 µM (cancer cells; Breast cancer): 74% | viability at 20 µM (cancer cells; Breast cancer): 65% | viability at 10 µM (cancer cells; CLL): 57% | viability at 20 µM (cancer cells; CLL): 45% | viability at 10 µM (cancer cells; CML): 64% | viability at 20 µM (cancer cells; CML): 49% | viability at 10 µM (cancer cells; Children hepatoblastoma): 53% | viability at 20 µM (cancer cells; Children hepatoblastoma): 47% | viability at 10 µM (cancer cells; Colon adenocarcinoma): 55% | viability at 20 µM (cancer cells; Colon adenocarcinoma): 49% | viability at 10 µM (cancer cells; Colorectal cancer): 76% | viability at 20 µM (cancer cells; Colorectal cancer): 66% | viability at 10 µM (cancer cells; Gastric cancer): 54% | viability at 20 µM (cancer cells; Gastric cancer): 47% | viability at 10 µM (cancer cells; Gastrointestinal tumor): 63% | viability at 20 µM (cancer cells; Gastrointestinal tumor): 52% | viability at 10 µM (cancer cells; Glioma): 83% | viability at 20 µM (cancer cells; Glioma): 74% | viability at 10 µM (cancer cells; [3]): 67% | viability at 20 µM (cancer cells; [3]): 58% | viability at 10 µM (cancer cells; Laryngeal cancer): 74% | viability at 20 µM (cancer cells; Laryngeal cancer): 64% | viability at 10 µM (cancer cells; Liver cancer): 65% | viability at 20 µM (cancer cells; Liver cancer): 54% | viability at 10 µM (cancer cells; Lung adenocarcinoma): 57% | viability at 20 µM (cancer cells; Lung adenocarcinoma): 46% | viability at 10 µM (cancer cells; Lung cancer): 54% | viability at 20 µM (cancer cells; Lung cancer): 37% | viability at 10 µM (cancer cells; Malignant melanoma): 81% | viability at 20 µM (cancer cells; Malignant melanoma): 66% | viability at 10 µM (cancer cells; Nasopharynx cancer): 54% | viability at 20 µM (cancer cells; Nasopharynx cancer): 48% | viability at 10 µM (cancer cells; Ovarian cancer): 76% | viability at 20 µM (cancer cells; Ovarian cancer): 67% | viability at 10 µM (cancer cells; Pancreatic cancer): 64% | viability at 20 µM (cancer cells; Pancreatic cancer): 48% | viability at 10 µM (cancer cells; Prostate cancer): 56% | viability at 20 µM (cancer cells; Prostate cancer): 44% | viability at 10 µM (cancer cells; Retinoblastoma): 64% | viability at 20 µM (cancer cells; Retinoblastoma): 54% | viability at 10 µM (cancer cells; Skin cancer): 66% | viability at 20 µM (cancer cells; Skin cancer): 58% | Content of IL-1β in culture supernatant of synoviocyte (x ± s) [1]: 0.39 ± 0.067 ng/mL | viability at 10 µM (normal cells; [4]): 93% | viability at 10 µM (normal cells; [5]): 89% | viability at 20 µM (normal cells; [4]): 91% | viability at 20 µM (normal cells; [5]): 88% | viability at 10 µM (cancer stem cells; AML): 35% | viability at 20 µM (cancer stem cells; AML): 26% | viability at 10 µM (cancer stem cells; Brain glioma): 62% | viability at 20 µM (cancer stem cells; Brain glioma): 47% | viability at 10 µM (cancer stem cells; Brain tumor): 72% | viability at 20 µM (cancer stem cells; Brain tumor): 66% | viability at 10 µM (cancer stem cells; Breast cancer): 66% | viability at 20 µM (cancer stem cells; Breast cancer): 52% | viability at 10 µM (cancer stem cells; CLL): 46% | viability at 20 µM (cancer stem cells; CLL): 34% | viability at 10 µM (cancer stem cells; CML): 57% | viability at 20 µM (cancer stem cells; CML): 36% | viability at 10 µM (cancer stem cells; Children hepatoblastoma): 44% | viability at 20 µM (cancer stem cells; Children hepatoblastoma): 39% | viability at 10 µM (cancer stem cells; Colon adenocarcinoma): 42% | viability at 20 µM (cancer stem cells; Colon adenocarcinoma): 35% | viability at 10 µM (cancer stem cells; Colorectal cancer): 62% | viability at 20 µM (cancer stem cells; Colorectal cancer): 55% | viability at 10 µM (cancer stem cells; Gastric cancer): 43% | viability at 20 µM (cancer stem cells; Gastric cancer): 37% | viability at 10 µM (cancer stem cells; Gastrointestinal tumor): 54% | viability at 20 µM (cancer stem cells; Gastrointestinal tumor): 44% | viability at 10 µM (cancer stem cells; Glioma): 71% | viability at 20 µM (cancer stem cells; Glioma): 65% | viability at 10 µM (cancer stem cells; [3]): 56% | viability at 20 µM (cancer stem cells; [3]): 47% | viability at 10 µM (cancer stem cells; Laryngeal cancer): 64% | viability at 20 µM (cancer stem cells; Laryngeal cancer): 53% | viability at 10 µM (cancer stem cells; Liver cancer): 52% | viability at 20 µM (cancer stem cells; Liver cancer): 46% | viability at 10 µM (cancer stem cells; Lung adenocarcinoma): 46% | viability at 20 µM (cancer stem cells; Lung adenocarcinoma): 34% | viability at 10 µM (cancer stem cells; Lung cancer): 42% | viability at 20 µM (cancer stem cells; Lung cancer): 29% | viability at 10 µM (cancer stem cells; Malignant melanoma): 62% | viability at 20 µM (cancer stem cells; Malignant melanoma): 54% | viability at 10 µM (cancer stem cells; Nasopharynx cancer): 45% | viability at 20 µM (cancer stem cells; Nasopharynx cancer): 37% | viability at 10 µM (cancer stem cells; Ovarian cancer): 64% | viability at 20 µM (cancer stem cells; Ovarian cancer): 55% | viability at 10 µM (cancer stem cells; Pancreatic cancer): 54% | viability at 20 µM (cancer stem cells; Pancreatic cancer): 36% | viability at 10 µM (cancer stem cells; Prostate cancer): 44% | viability at 20 µM (cancer stem cells; Prostate cancer): 31% | viability at 10 µM (cancer stem cells; Retinoblastoma): 55% | viability at 20 µM (cancer stem cells; Retinoblastoma): 34% | viability at 10 µM (cancer stem cells; Skin cancer): 55% | viability at 20 µM (cancer stem cells; Skin cancer): 43% | Content of PGE2 in culture supernatant of synoviocyte (x ± s) [2]: 26.48 ± 2.57 ng/mL
